The record followed here is ChEMBL document CHEMBL5291721, “A preclinical secondary pharmacology resource illuminates target-adverse drug reaction associations of marketed drugs” (Nat Commun, 2023).

In general, AC50 refers to the midpoint of the concentration-response curve, whichever way the signal moves. Low values mean activity at low concentration, high ones activity only at high concentration.

For one experiment, the target named is T1, Thromboxane A2 receptor (Homo sapiens, UniProt P21731).
T1 sequence (P21731 whole entry): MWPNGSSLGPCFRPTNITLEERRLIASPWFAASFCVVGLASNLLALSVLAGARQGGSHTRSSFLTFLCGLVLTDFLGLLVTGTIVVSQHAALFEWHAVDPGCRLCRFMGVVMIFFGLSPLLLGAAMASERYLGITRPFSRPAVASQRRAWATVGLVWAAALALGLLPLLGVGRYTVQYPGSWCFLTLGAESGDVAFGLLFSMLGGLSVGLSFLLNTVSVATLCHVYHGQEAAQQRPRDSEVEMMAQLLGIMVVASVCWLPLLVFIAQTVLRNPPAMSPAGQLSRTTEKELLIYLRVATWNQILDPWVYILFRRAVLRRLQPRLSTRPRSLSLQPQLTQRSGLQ

Experiment [1] concerns the target Kappa-type opioid receptor (Homo sapiens, UniProt P41145).
Experiment [2] addresses T2, Alpha-2B adrenergic receptor (Homo sapiens, UniProt P18089).
T2 sequence (P18089 whole entry): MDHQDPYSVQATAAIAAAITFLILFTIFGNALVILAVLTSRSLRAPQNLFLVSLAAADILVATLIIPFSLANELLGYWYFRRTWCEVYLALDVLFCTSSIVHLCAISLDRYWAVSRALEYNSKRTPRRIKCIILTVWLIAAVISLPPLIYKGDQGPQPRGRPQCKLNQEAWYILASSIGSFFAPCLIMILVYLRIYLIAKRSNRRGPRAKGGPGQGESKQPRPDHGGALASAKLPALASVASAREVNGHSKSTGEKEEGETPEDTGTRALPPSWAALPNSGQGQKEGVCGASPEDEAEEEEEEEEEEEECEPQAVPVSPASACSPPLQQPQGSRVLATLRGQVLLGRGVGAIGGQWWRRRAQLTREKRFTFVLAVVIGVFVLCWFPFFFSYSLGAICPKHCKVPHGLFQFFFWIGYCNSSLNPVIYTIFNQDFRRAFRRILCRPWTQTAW

The target of experiment [3] is T3, 5-hydroxytryptamine receptor 3A (Homo sapiens, UniProt P46098).
T3 sequence (P46098 whole entry): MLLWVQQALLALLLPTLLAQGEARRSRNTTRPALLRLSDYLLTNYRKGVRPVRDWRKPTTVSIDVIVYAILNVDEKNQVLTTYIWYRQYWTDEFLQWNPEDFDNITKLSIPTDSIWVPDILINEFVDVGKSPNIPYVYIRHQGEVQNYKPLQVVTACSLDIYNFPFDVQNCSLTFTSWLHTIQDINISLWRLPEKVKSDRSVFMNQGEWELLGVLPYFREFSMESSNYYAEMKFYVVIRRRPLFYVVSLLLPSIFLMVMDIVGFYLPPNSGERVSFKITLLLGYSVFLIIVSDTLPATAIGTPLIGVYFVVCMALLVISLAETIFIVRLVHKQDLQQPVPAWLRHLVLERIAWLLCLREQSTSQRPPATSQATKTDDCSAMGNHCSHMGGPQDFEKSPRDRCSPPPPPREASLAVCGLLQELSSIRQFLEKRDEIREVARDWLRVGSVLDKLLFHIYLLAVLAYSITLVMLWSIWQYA
Type of experiment: functional.

The next experiment addresses T4, Progesterone receptor (Homo sapiens, UniProt P06401).
T4 sequence (P06401 whole entry): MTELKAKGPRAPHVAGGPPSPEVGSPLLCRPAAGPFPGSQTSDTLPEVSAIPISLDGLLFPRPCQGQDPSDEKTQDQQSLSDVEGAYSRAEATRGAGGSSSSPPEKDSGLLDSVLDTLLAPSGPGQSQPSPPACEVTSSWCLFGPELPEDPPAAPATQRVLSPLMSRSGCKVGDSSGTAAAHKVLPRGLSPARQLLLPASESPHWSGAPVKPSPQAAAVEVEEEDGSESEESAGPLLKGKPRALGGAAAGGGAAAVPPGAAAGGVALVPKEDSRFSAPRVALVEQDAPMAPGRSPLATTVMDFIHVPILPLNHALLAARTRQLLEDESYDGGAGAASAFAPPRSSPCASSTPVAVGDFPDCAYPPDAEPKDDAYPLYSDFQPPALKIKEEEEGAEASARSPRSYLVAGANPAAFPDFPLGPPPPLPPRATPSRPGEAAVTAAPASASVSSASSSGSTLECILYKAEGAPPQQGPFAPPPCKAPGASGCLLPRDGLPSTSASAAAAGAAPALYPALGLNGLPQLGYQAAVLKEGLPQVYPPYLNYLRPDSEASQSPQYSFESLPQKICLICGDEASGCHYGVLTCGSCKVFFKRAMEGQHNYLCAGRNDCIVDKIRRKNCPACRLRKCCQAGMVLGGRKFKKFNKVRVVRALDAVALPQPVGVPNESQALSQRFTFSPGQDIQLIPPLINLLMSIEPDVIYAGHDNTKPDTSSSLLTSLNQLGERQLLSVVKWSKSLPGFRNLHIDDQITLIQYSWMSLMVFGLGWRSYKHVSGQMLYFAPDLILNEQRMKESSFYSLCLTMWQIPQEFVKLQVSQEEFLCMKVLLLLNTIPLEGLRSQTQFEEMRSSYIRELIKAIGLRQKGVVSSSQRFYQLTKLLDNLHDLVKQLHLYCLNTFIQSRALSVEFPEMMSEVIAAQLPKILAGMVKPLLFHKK
Type of experiment: functional.

The target of experiment [4] is Delta-type opioid receptor (Homo sapiens, UniProt P41143).
Sequence of Delta-type opioid receptor (P41143 whole entry): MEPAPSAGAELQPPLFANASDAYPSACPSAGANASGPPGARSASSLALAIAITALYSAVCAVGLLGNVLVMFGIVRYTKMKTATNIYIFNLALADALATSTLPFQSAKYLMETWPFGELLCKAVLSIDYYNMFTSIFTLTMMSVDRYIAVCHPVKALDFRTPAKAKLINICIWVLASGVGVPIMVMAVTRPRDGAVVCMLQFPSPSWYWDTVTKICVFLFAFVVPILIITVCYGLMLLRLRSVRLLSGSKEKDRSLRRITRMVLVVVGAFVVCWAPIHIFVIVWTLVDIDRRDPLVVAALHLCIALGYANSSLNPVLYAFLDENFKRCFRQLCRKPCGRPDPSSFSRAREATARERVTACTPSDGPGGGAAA
A further experiment concerns the target Histamine H2 receptor (Homo sapiens, UniProt P25021). Type of experiment: functional, cell-based.
Experiment [5] concerns the target T5, 5-hydroxytryptamine receptor 2C (Homo sapiens, UniProt P28335).
T5 sequence (P28335 whole entry): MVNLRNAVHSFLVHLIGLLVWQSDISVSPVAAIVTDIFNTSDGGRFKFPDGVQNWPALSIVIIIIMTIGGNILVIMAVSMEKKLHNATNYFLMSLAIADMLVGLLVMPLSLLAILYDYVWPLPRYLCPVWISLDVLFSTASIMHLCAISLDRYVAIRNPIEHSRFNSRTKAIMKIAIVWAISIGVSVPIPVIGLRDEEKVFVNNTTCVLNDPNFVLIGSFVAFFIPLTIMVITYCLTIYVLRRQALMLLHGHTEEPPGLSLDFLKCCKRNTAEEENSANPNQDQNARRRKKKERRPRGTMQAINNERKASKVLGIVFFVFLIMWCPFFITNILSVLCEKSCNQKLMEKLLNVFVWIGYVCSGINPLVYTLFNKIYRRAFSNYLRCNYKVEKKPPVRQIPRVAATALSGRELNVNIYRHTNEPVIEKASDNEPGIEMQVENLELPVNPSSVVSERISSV
Further: assay procedure not described here.

Sequence of Kappa-type opioid receptor (P41145 whole entry): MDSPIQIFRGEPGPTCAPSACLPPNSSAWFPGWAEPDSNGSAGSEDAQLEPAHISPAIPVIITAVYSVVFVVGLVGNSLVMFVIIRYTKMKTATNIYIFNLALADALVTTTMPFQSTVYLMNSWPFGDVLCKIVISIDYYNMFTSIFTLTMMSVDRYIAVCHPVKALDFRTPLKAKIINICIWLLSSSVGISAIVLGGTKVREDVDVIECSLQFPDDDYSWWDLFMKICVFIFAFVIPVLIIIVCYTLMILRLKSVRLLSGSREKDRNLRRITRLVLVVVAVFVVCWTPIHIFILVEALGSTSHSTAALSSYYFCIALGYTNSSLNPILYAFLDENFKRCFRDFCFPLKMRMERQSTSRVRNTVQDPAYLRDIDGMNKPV
Sequence of Histamine H2 receptor (P25021 whole entry): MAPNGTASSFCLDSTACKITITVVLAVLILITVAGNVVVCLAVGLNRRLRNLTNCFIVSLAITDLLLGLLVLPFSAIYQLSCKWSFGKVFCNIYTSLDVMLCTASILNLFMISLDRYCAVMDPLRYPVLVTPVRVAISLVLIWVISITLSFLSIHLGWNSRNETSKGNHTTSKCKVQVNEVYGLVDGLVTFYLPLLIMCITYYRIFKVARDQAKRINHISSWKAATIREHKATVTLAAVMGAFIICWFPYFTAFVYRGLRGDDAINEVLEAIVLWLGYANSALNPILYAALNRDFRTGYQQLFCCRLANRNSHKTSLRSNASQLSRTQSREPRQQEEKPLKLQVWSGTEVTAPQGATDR

Consider `C/C(=C\C(=O)OCCCCCCCCC(=O)O)C[C@@H]1OC[C@H](C[C@@H]2O[C@H]2[C@@H](C)[C@H](C)O)[C@@H](O)[C@H]1O` [MUPIROCIN], for which the AC50 was over 10 µM at Thromboxane A2 receptor; over 10 µM in experiment [1]; over 10 µM in experiment [2]; over 30 µM in experiment [3]; over 10 µM on Progesterone receptor; over 30 µM in experiment [4]. Also, the concentration at half-maximal activity (AC50) at Histamine H2 receptor was over 10 µM; in experiment [5], over 30 µM.
As to `C#CCOc1ccc(N)cc1C(=O)NCCCC` [PARSALMIDE], the concentration at half-maximal activity (AC50) (at Thromboxane A2 receptor; in experiment [1]; in experiment [2]; in experiment [3]; at Progesterone receptor; in experiment [4]) was over 30 µM throughout. Moreover, the AC50 (on Histamine H2 receptor; in experiment [5]) was over 30 µM in each case.
Regarding `COc1ccc2nc3cc(Cl)ccc3c(Nc3cc(CN4CCCC4)c(O)c(CN4CCCC4)c3)c2n1` [PYRONARIDINE], the half-maximal activity concentration (AC50) on Thromboxane A2 receptor is over 30 µM; in experiment [1] it was 15 µM; in experiment [2], over 30 µM; in experiment [3] it was over 30 µM; at Progesterone receptor, 14 µM; in experiment [4], over 30 µM. Besides, the AC50 (on Histamine H2 receptor; in experiment [5]) was over 30 µM each time.
As for `OCc1cc(C(O)CNCCCCCCOCCCCc2ccccc2)ccc1O` (stereo not given) [SALMETEROL], the AC50 is over 30 µM on Thromboxane A2 receptor; 11 µM in experiment [1]; 13 µM in experiment [2]; over 30 µM in experiment [3]; over 30 µM on Progesterone receptor; over 30 µM in experiment [4]. Moreover, the AC50 at Histamine H2 receptor is over 10 µM; in experiment [5], over 30 µM.
With `CCC(COC(=O)c1cc(OC)c(OC)c(OC)c1)(c1ccccc1)N(C)C` (stereo not given) [TRIMEBUTINE], the half-maximal activity concentration (AC50) was over 30 µM on Thromboxane A2 receptor; 0.19 µM in experiment [1]; 17 µM in experiment [2]; over 30 µM in experiment [3]; over 30 µM at Progesterone receptor; 4 µM in experiment [4]. The half-maximal activity concentration (AC50) (at Histamine H2 receptor; in experiment [5]) was over 30 µM throughout.
